Measurements: US20090123536A1, “Oral Pharmaceutical Form of Losartan” (Flamel Technologies, S.A., priority 2005, published 2009)
In brackets after ≈: the same amount, converted by molar mass.

Assay: Solubility of losartan as a function of pH
Type: physicochemical
Settings: water
Description: It is thus conceived that for losartan, whose solubility depends greatly on the gastric pH (cf. table below), the solubilization, and thus ultimately the plasmatic concentration profile, is subject to great variation from one individual to another and, for the same individual, from one day to another.

solubility (aqueous buffer, pH 3.0, 37° C.): 100 µg/mL (≈ 0.236 mM)
solubility (aqueous buffer, pH 4.5, 37° C.): 120 µg/mL (≈ 0.284 mM)
solubility (aqueous buffer, pH 5.0, 37° C.): 300 µg/mL (≈ 0.709 mM)
solubility (aqueous buffer, pH 6.0, 37° C.): 1200 µg/mL (≈ 2.84 mM)
solubility (aqueous buffer, pH 6.8, 37° C.): 10000 µg/mL (≈ 23.6 mM)
solubility (aqueous buffer, pH 8.5, 37° C.): > 550000 µg/mL
solubility (simulated gastric fluid, pH 1.4, 37° C.): 1000 µg/mL (≈ 2.36 mM)
solubility (simulated gastric fluid, pH 2.0, 37° C.): 600 µg/mL (≈ 1.42 mM)
Compound: CCCCc1nc(Cl)c(CO)n1Cc1ccc(-c2ccccc2-c2nn[nH]n2)cc1 [losartan, {2-butyl-4-chloro-1-[4-[2-(1H-tetrazol-5-yl)phenyl]benzyl]-1H-imidazol-5-yl}methanol]
